Each structure is given as a SMILES string. Read-outs that look alike come from different tables or passages of the source. Where only a bound is given, the exact number is not on record here.

Data on 14 molecules can be found in PMC9457736, “Dual Inhibition of HIV-1 and Cathepsin L Proteases by Sarcandra glabra” (Molecules, 2022).

Test [1] deals with T1, recombinant HIV-1 protease (wild type) (Human immunodeficiency virus type 1 group M subtype B, UniProt P04585).
T1 construct: 8 μL of recombinant HIV-1 protease (wild type); purchased AnaSpec Inc
Put plainly: FRET assay of HIV-1 protease inhibition. Format: biochemical. To be noted: for HIV-1 PR Inhibition (%) ± SD at 1.0 (mg/mL) / inhibition at 1000 µg/mL / IC50 ± RSD% HIV-1 PR: n = 3; for HIV-1 PR Inhibition (%) ± SD at 1.0 (mg/mL) / inhibition at 1000 µg/mL: 1.0 mg/mL; for inhibition at 1000 µg/mL: read-out: HIV-1 PR Inhibition (%) ± SD at 1.0 (mg/mL). How it is done:
Enzyme activities of HIV-1, Cathepsin L, and renin proteases were determined by a FRET assay, following the manufacturer’s protocol. Briefly, the HIV-1 PR activity was assayed using 384-well microplates with a well volume of 120 μL (Corning Incorporated, Corning, NY, USA). […] Reactions were then initiated by adding 10 μL of the HIV protease substrate (50X dilution with assay buffer). Fluorescence was measured using a EX/Em = 490/520 nm filter module on a Synergy II microplate reader. […] Briefly, 2 μL test compound solutions (0.01~1.0 mg/mL) and 8 µL of human recombinant Cathepsin L protease (200× dilution with DTT-containing assay buffer, final concentration: 0.5 µg/mL) were added in the microplate wells. The microplate was pre-incubated at room temperature for 10 min. The enzymatic reaction was subsequently initiated by adding 10 μL of freshly diluted Cathepsin L substrate solution (100× dilution with assay buffer, final concentration: 0.01 mM) into each well. The microplate was gently shaken for 30 s before being incubated at 37 °C for 30 min. Fluorescence was measured at an emission of 520 nm and excitation of 490 nm. A Cathepsin L inhibitor, (100× dilution with assay buffer, final concentration: 1 µM) was used as a positive control. IC50 values of tested compounds were calculated by Microsoft Office Excel software using three different concentrations.

The target in test [2] is T2, human recombinant Cathepsin L protease (Homo sapiens, UniProt P07711).
T2 construct: purchased AnaSpec Inc. SensoLyte 520 Cathepsin L Protease Assay Kit, Lot#: AS72218-1010
Put plainly: FRET assay of Cathepsin L protease inhibition (SensoLyte 520 kit). Type of test: biochemical. To be noted: for inhibition at 10 µg/mL: read-out: CatL PR Inhibition (%) ± SD at 0.01 (mg/mL). How it is done: Enzyme activities of HIV-1, Cathepsin L, and renin proteases were determined by a FRET assay, following the manufacturer’s protocol. Briefly, the HIV-1 PR activity was assayed using 384-well microplates with a well volume of 120 μL (Corning Incorporated, Corning, NY, USA). Then, 8 μL of recombinant HIV-1 protease (wild type, NCBI accessiob: NC-001802, final concentration: 0.01 mg/mL (80 ng/well), AnaSpec Inc., Fremont, San Jose, CA, USA) was mixed with 2 μL of the test compounds (0.01~1.0 mg/mL). Reactions were then initiated by adding 10 μL of the HIV protease substrate (50X dilution with assay buffer). Fluorescence was measured using a EX/Em = 490/520 nm filter module on a Synergy II microplate reader. To evaluate the inhibitory activity of the test compounds towards Cathepsin L protease, fluorimetric SensoLyte^TM 520 Cathepsin L Protease Assay Kit (Lot#: AS72218-1010, AnaSpec Inc. San Jose, CA, USA) was used. Briefly, 2 μL test compound solutions (0.01~1.0 mg/mL) and 8 µL of human recombinant Cathepsin L protease (200× dilution with DTT-containing assay buffer, final concentration: 0.5 µg/mL) were added in the microplate wells. The microplate was pre-incubated at room temperature for 10 min. The enzymatic reaction was subsequently initiated by adding 10 μL of freshly diluted Cathepsin L substrate solution (100× dilution with assay buffer, final concentration: 0.01 mM) into each well. The microplate was gently shaken for 30 s before being incubated at 37 °C for 30 min. Fluorescence was measured at an emission of 520 nm and excitation of 490 nm. A Cathepsin L inhibitor, (100× dilution with assay buffer, final concentration: 1 µM) was used as a positive control. IC50 values of tested compounds were calculated by Microsoft Office Excel software using three different concentrations.

T2 sequence (P07711 114-333): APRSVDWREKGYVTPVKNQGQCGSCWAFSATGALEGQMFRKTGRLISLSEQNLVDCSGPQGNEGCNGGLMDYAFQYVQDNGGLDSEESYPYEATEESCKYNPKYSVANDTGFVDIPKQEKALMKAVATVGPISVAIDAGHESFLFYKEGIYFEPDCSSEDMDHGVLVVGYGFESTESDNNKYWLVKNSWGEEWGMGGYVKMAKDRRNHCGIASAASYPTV

Consider `C[C@@H]1CC[C@H]2[C@@H](C)C(=O)O[C@@H]3O[C@@]4(C)CC[C@@H]1[C@]32OO4` [Compound 14, Artemisinin], for which, in test [1], the “HIV-1 PR Inhibition (%) ± SD at 1.0 (mg/mL)” value (from here on “HIV-1 PR Inhibition (%) ± SD”) was determined as 50.8 ± 0.58%, the inhibition at 1000 µg/mL is above 50% and the “IC50 ± RSD% HIV-1 PR” value is 0.95 ± 2.77%. Also, in test [2] (0.01 mg/mL, n = 3), the inhibition at 10 µg/mL was -1.1 ± 0.52%.
Consider `O=C(O)/C=C/c1ccc(O)c(O)c1` [Compound 7, Caffeic acid], for which, in test [1], the half-inhibitory concentration (IC50) is 2.66 mM, the “HIV-1 PR Inhibition (%) ± SD” value was found to be 65.9 ± 0.00%, the inhibition at 1000 µg/mL is above 50% and the “IC50 ± RSD% HIV-1 PR” value amounted to 0.48 ± 0.124%. Moreover, the inhibition at 10 µg/mL in test [2] (0.01 mg/mL, n = 3) came out at 32.1 ± 1.68%.
Take `O=C(O)c1ccc(O)c(O)c1` [Compound 4, Protocatechuic acid]: in test [1], the inhibition at 1000 µg/mL turned out to be 47.9 ± 1.82%. In addition, in test [2], the inhibition at 10 µg/mL amounted to 42.1 ± 2.25%.
Consider `COc1ccc(C(C)=O)c(O)c1` [Compound 3, Paeonol], for which, in test [1], the inhibition at 1000 µg/mL was -12.6 ± 0.26%. In test [2] (0.01 mg/mL, n = 3), the inhibition at 10 µg/mL is -15 ± 0.56%.
Regarding `COc1cc2ccc(=O)oc2c(OC)c1O` [Compound 10, Isofraxidin], in test [1], the inhibition at 1000 µg/mL was -2.09 ± 8.57%. In addition, the inhibition at 10 µg/mL in test [2] (0.01 mg/mL, n = 3) was 27 ± 2.37%.
The corresponding values for `COc1cc2ccc(=O)oc2c(O)c1O` [Compound 8, Fraxetin] are 24.1 ± 6.7% and 15 ± 5.25%.
For `O=C(/C=C/c1ccc(O)c(O)c1)O[C@H](Cc1ccc(O)c(O)c1)C(=O)O` [Compound 12, Rosmarinic acid], the inhibition at 10 µg/mL in test [2] (0.01 mg/mL, n = 3) worked out at 19.2 ± 1.7%.
As to `O=C(O)[C@]1(O)C[C@@H](O)[C@@H](O)[C@H](O)C1` [Compound 2, D-(-)-Quinic acid], the inhibition at 1000 µg/mL in test [1] was -20.1 ± 2.61%. For the same molecule, in test [2], the “inhibition of CatL PR (in words)” value is reported as “no inhibition” and the inhibition at 10 µg/mL was -0.32 ± 8.61%.
`O=C(/C=C/c1ccc(O)c(O)c1)O[C@@H]1C[C@](O)(C(=O)O)C[C@@H](O)[C@H]1O` [Compound 5, Chlorogenic acid]: the inhibition at 10 µg/mL in test [2] (0.01 mg/mL, n = 3) amounted to 40.8 ± 2.54%.
`O=c1ccc2ccc(O)cc2o1` [Compound 6, 7-Hydroxycoumarine]: the inhibition at 1000 µg/mL in test [1] was 28.9 ± 4.41%. The inhibition at 10 µg/mL in test [2] (0.01 mg/mL, n = 3) was found to be 22.6 ± 0.53%.
`COc1cc(O)cc2c1C(=O)C[C@@H](c1ccccc1)O2` [Compound 13, Alpinetin]: in test [1], the “HIV-1 PR Inhibition (%) ± SD” value worked out at 62.3 ± 0.96%, the inhibition at 1000 µg/mL is above 50% and the “IC50 ± RSD% HIV-1 PR” value was 0.62 ± 3.44%. Further, the inhibition at 10 µg/mL in test [2] (0.01 mg/mL, n = 3) is 11.9 ± 8.99%.
The matching figures for `C[C@@H]1O[C@@H](O[C@H]2C(=O)c3c(O)cc(O)cc3O[C@@H]2c2ccc(O)c(O)c2)[C@H](O)[C@H](O)[C@H]1O` [Compound 9, Astilbin]: 68.4 ± 5.45%, above 50%, 0.54 ± 4.34% and -24.7 ± 8.14%.
As for `C[N+](C)(C)CC(=O)O` [Compound 1, Betaine], in test [1], the inhibition at 1000 µg/mL came out at 8.95 ± 4.61%. Further, the inhibition at 10 µg/mL in test [2] (0.01 mg/mL, n = 3) is -15.5 ± 5.76%.
Consider `O=C(C=Cc1ccc(O)c(O)c1)OC1CC(O)(C(=O)O)CC(O)C1OC(=O)C=Cc1ccc(O)c(O)c1` (stereo not shown) [Compound 11, 3,4-Dicaffeoylquinic acid], for which, in test [1], the concentration for half-maximal inhibition (IC50) was 0.252 mM, the “HIV-1 PR Inhibition (%) ± SD” value was 86.1 ± 3.92% and the “IC50 ± RSD% HIV-1 PR” value was determined as 0.13 ± 2.84%. In test [1] (listed as 3,4-dicaffeoylquinic acid), the “HIV-1 PR Inhibition (%) ± SD” value is “more than 50%”. The “inhibition of CatL PR (in words)” value in test [2] is “no inhibition”. Besides, the inhibition at 10 µg/mL in test [2] (0.01 mg/mL, n = 3) is -31.3 ± 6.24%.

By IC50 is commonly meant the point on the concentration scale where inhibition reaches its midpoint.
